# Results reported in patent US20260234147A1 (priority 2023, published 2026).
# Like-named read-outs stand apart in the source and are kept apart here.
# Key:
# [1] = biological target: hMOR (Homo sapiens, UniProt P35372); test: Radioligand binding assay (Eurofins Cerep), [3H]DAMGO displacement
# [2] = biological target: hDOR (Homo sapiens, UniProt P41143); test: Radioligand binding assay (Eurofins Cerep), [3H]DADLE displacement
# [3] = biological target: hKOR (Homo sapiens, UniProt P41145); test: Radioligand binding assay (Eurofins Cerep), [3H]U69,593 displacement
# hKOR, sequence (P41145 whole entry): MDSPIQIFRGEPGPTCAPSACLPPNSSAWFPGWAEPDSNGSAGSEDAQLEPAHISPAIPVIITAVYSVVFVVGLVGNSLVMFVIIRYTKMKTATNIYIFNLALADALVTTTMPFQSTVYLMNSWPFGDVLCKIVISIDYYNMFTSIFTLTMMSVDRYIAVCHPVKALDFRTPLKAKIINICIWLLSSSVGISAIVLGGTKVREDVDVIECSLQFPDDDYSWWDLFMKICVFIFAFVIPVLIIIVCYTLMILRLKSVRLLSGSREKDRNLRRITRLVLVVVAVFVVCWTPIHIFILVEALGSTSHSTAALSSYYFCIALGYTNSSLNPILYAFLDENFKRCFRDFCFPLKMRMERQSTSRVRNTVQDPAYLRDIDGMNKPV
# [4] = biological target: T1, α2A adrenergic receptor (Homo sapiens, UniProt P08913); test: Radioligand binding assay (Eurofins Cerep), [3H]RX 821002 displacement
# T1 construct: Eurofins Cerep (contract screening)
# T1 sequence (P08913 1-465): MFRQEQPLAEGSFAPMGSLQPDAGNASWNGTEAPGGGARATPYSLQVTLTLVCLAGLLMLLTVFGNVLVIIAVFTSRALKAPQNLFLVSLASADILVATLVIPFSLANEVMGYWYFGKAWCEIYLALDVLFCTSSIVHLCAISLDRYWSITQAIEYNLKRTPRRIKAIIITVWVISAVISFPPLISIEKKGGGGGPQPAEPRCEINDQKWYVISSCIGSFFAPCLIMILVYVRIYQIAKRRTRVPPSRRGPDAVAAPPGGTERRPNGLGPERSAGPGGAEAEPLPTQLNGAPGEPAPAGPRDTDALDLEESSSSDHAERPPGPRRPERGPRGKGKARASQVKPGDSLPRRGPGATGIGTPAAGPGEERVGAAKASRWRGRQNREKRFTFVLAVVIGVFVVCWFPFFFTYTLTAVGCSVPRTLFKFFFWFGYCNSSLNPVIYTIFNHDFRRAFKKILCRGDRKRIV
# [5] = Table 3-5, 3 independent experiments, read-out: Ki (nM ± SEM) MOR
# [6] = Table 3-5, 3 independent experiments, read-out: Ki (nM ± SEM) DOR
# [7] = Table 3-5, 3 independent experiments, read-out: Ki (nM ± SEM) KOR
# [8] = Table 3-5, 3 independent experiments, read-out: Ki (nM ± SEM) a2A-ar
# [9] = Table 3-6, 3 independent experiments, read-out: Ki (nM ± SEM) MOR
# [10] = Table 3-6, 3 independent experiments, read-out: Ki (nM ± SEM) DOR
# [11] = Table 3-6, 3 independent experiments, read-out: Ki (nM ± SEM) KOR
# [12] = Ki (nM ± SEM) DOR, Table 3-6, 3 independent experiments
# [13] = Ki (nM ± SEM) a2A-AR, Table 3-6, 3 independent experiments
# [14] = Table B2, mean ± SEM, 3 independent experiments, read-out: MOR Ki ± SEM
# [15] = Alpha2A Ki ± SEM (nM), Table B2, mean ± SEM, 3 independent experiments
# [16] = Table A4, data summary #2, read-out: MOR Ki ± SEM
# [17] = Table A4, data summary #2, read-out: DOR Ki ± SEM
# [18] = Table A4, data summary #2, read-out: KOR Ki ± SEM
# hMOR, sequence (P35372 whole entry): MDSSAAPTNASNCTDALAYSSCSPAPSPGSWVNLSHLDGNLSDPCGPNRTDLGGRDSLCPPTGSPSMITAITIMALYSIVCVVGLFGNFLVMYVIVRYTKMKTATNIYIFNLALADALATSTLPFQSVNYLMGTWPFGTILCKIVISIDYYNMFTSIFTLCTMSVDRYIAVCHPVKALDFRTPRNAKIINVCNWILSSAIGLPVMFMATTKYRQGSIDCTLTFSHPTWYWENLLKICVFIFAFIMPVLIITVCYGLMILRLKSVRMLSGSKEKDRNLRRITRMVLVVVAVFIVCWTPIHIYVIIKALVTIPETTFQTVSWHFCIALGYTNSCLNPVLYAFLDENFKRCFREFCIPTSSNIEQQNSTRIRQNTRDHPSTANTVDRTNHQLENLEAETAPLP
# hDOR, sequence (P41143 whole entry): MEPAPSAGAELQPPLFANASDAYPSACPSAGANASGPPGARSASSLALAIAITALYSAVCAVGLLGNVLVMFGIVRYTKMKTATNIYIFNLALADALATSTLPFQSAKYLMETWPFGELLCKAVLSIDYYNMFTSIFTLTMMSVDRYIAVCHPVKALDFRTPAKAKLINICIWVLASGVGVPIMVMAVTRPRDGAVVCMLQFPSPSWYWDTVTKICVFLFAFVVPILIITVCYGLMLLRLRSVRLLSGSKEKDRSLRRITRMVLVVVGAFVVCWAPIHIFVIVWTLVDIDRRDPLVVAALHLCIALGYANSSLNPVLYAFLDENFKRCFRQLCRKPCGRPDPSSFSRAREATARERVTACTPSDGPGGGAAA
smiles,measurement,setting,value
COC=C(C(=O)OC)C1CCN(Cc2ccccc2)CC1 [Compound 3-50],Ki,"[1]; Table 3-4, 3 independent experiments, read-out: Ki (nM ± SEM) MOR",> 10000 nM
same,Ki,"[2]; Table 3-4, 3 independent experiments, read-out: Ki (nM ± SEM) DOR",> 10000 nM
same,Ki,"[3]; Table 3-4, 3 independent experiments, read-out: Ki (nM ± SEM) KOR",5700 ± 558 nM
same,Ki,"[4]; Ki (nM ± SEM) a2A-AR, Table 3-4, 3 independent experiments",> 10000 nM
COC=C(C(=O)OC)C1CCN(Cc2c[nH]c3ccccc23)CC1 [Compound 3-57],Ki,[1]; [5],> 10000 nM
same,Ki,[2]; [6],> 10000 nM
same,Ki,[3]; [7],> 10000 nM
same,Ki,"[4]; Ki (nM ± SEM) a2A-ar, Table 3-5, 3 independent experiments",867 ± 370 nM
COC(=O)CC1CCN(Cc2c[nH]c3ccccc23)CC1 [Compound 3-58],SR: Selectivity Ratio (KiMOR/Kiα2A),[1]; Table 3-5,0.78
same,Ki,[1]; [5],2700 ± 580 nM
same,Ki,[2]; [6],> 10000 nM
same,Ki,[3]; [7],791 ± 216 nM
same,Ki,[4]; [8],3460 ± 428 nM
COC(=O)CC1CCN(CC(=O)c2c[nH]c3cccc(OC)c23)CC1 [Compound 3-63],Ki,[1]; [5],> 10000 nM
same,Ki,[2]; [6],> 10000 nM
same,Ki,[3]; [7],> 10000 nM
same,Ki,[4]; [8],6370 ± 1160 nM
COC(=O)CN1CCN(CCc2c[nH]c3cccc(OC)c23)CC1 [Compound 3-65],Ki,[1]; [9],> 10000 nM
same,Ki,[2]; [10],> 10000 nM
same,Ki,[3]; [11],> 10000 nM
same,Ki,"[4]; Table 3-6, 3 independent experiments, read-out: Ki (nM ± SEM) a2A-AR",265 ± 64.3 nM
COC(=O)CN1CCN(CCc2c[nH]c3ccccc23)CC1 [Compound 3-66],SR: Selectivity Ratio (KiMOR/Kiα2A),[1]; Table 3-6,0.21
same,Ki,[1]; [9],2030 ± 694 nM
same,Ki,[2]; [12],> 10000 nM
same,Ki,[3]; [11],> 10000 nM
same,Ki,[4]; [13],9760 ± 4830 nM
COC(=O)NC1CCN(CCc2c[nH]c3ccccc23)CC1 [Compound 3-68],SR: Selectivity Ratio (KiMOR/Kiα2A),[1]; Table 3-6,0.37
same,Ki,[1]; [9],1890 ± 454 nM
same,Ki,[2]; [10],> 10000 nM
same,Ki,[3]; [11],> 10000 nM
same,Ki,[4]; [13],5090 ± 730 nM
COCC(C(=O)OC)C1CCN(CCc2c[nH]c3ccccc23)CC1 (centres unmarked) [Compound 3-71],SR: Selectivity Ratio (KiMOR/Kiα2A),[1]; Table 3-6,2.02
same,Ki,[1]; [9],5580 ± 1700 nM
same,Ki,[2]; [12],> 10000 nM
same,Ki,[3]; [11],> 10000 nM
same,Ki,[4]; [13],2760 ± 281 nM
COC(=O)CC1CCN2CCC(O)(c3ccccc3)CC2C1 (centres unmarked) [SG-01-049],Ki,[1]; [14],9810 ± 2860 nM
same,Ki,[4]; [15],80 ± 19 nM
COC(=O)C=C1CCN2CCC(O)(c3ccccc3)CC2C1 (centres unmarked) [SG-01-053],Ki,[1]; [14],> 10000 nM
same,Ki,[4]; [15],95 ± 35 nM
CC[C@@H]1CN2CCc3c([nH]c4cccc(OC)c34)[C@@H]2C[C@@H]1/C(=C\OC)C(=O)n1cccc1 [SUSM-526],Ki,"[1]; Table A1, data summary #1, read-out: MOR Ki ± SEM",2160 ± 941 nM
same,Ki,[1]; [16],719 ± 414 nM
same,Ki,[1]; read-out: Ki at hMOR / opioid binding (converted),21600 nM
same,Ki,[2]; [17],> 10000 nM
same,Ki,"[3]; Table A1, data summary #1, read-out: KOR Ki ± SEM",5800 ± 1390 nM
same,Ki,[3]; [18],> 10000 nM
same,Ki,[3]; read-out: Ki at hKOR,57900 nM
same,Ki,"[4]; Table A4, data summary #2, read-out: Alpha2A Ki ± SEM",> 10000 nM
"CC[C@@H]1CN2CCc3c([nH]c4cccc(OC)c34)[C@@H]2C[C@@H]1/C(=C\OC)C(=O)N1CCOCC1 [SUSM-527, (E)-2-((2S,3S,12bS)-3-ethyl-8-methoxy-1,2,3,4,6,7,12,12b-octahydroindolo[2,3-a]quinolizin-2-yl)-3-methoxy-1-morpholinoprop-2-en-1-one]",Ki,[1]; [16],1660 ± 427 nM
same,Ki,[2]; [17],> 10000 nM
CC[C@@H]1CN2CCc3c([nH]c4cccc(OC)c34)[C@@H]2C[C@@H]1/C(=C\OC)C(=O)NCc1ccccc1 [SUSM-560],Ki,[1]; [16],5320 ± 800 nM
same,Ki,[2]; [17],> 10000 nM
"CC[C@@H]1CN2CCc3c([nH]c4cccc(OC)c34)[C@@H]2C[C@@H]1/C(=C\OC)C(=O)N1CCNCC1 [SUSM-562, (E)-2-((2S,3S,12bS)-3-ethyl-8-methoxy-1,2,3,4,6,7,12,12b-octahydroindolo[2,3-a]quinolizin-2-yl)-3-methoxy-1-(piperazin-1-yl)prop-2-en-1-one]",Ki,[1]; [16],4210 ± 558 nM
same,Ki,[2],> 10000 nM
"CC[C@@H]1CN2CCc3c([nH]c4cccc(OC)c34)[C@@H]2C[C@@H]1/C(=C\OC)C(=O)N(C)Cc1ccccc1 [SUSM-563, (E)-N-benzyl-2-((2S,3S,12bS)-3-ethyl-8-methoxy-1,2,3,4,6,7,12,12b-octahydroindolo[2,3-a]quinolizin-2-yl)-3-methoxy-N-methylacrylamide]",Ki,[1]; [16],5750 ± 770 nM
same,Ki,[2]; [17],4520 ± 1990 nM
CC[C@@H]1CN2CCc3c([nH]c4cccc(OC)c34)[C@@H]2C[C@@H]1/C(=C\OC)C(=O)N1CCSCC1 [SUSM-564],Ki,[1]; [16],134 ± 32 nM
same,Ki,[2]; [17],> 10000 nM
[2H]C([2H])([2H])N(C(=O)/C(=C/OC)[C@H]1C[C@H]2c3[nH]c4cccc(OC)c4c3CCN2C[C@H]1CC)C([2H])([2H])[2H] [SUSM-566],Ki,[1]; [16],330 ± 28 nM
same,Ki,"[2]; DOR Ki ± SEM (nM), Table A4, data summary #2",8300 ± 3300 nM
same,Ki,[3]; [18],1800 ± 251 nM
same,Ki,"[4]; Alpha2A Ki ± SEM (nM), Table A4, data summary #2",1960 ± 535 nM
